Laboratory results from ChEMBL document CHEMBL3885861, “Open TG-GATES”.

Species: Rattus norvegicus
Assay: Open TG-GATES - Regimen: Single
Format: toxicity, organism-based, Sprague-Dawley
Parameters: regimen Single, gender Male, age 6 weeks
Details: in vivo, po, 300 mg/kg, route gavage, dose level High; for APTT / Bas / Eos / Fbg / Hb / Ht / Lym / MCH / MCHC / MCV / Mono / Neu / PT / Plat / RBC / Ret / WBC: tissue Blood; for KIDNEY_L / KIDNEY_R / KIDNEY_TOTAL: tissue Kidney; for LIVER: tissue Liver; for A/G / ALP / ALT / AST / BUN / CRE / Ca / Cl / DBIL / GLC / IP / K / LDH / Na / PL / RALB / TBIL / TC / TG / TP / gamma-GTP: tissue Plasma

SMILES: Brc1ccccc1 [BROMOBENZENE]
- TERMINAL_BW (3 h): 190.3 g
- APTT (3 h): 15.8 s
- Bas (3 h): 0%
- Eos (3 h): 0.8%
- Fbg (3 h): 289.8 mg/dL
- Hb (3 h): 14.1 g/dL
- Ht (3 h): 41.4%
- Lym (3 h): 76.6%
- MCH (3 h): 21.7 pg
- MCHC (3 h): 33.9%
- MCV (3 h): 64 fL
- Mono (3 h): 3.2%
- Neu (3 h): 19.2%
- PT (3 h): 12 s
- Plat (3 h): 115.3 x10_4/uL
- RBC (3 h): 648.4 x10_4/ul
- Ret (3 h): 9.4%
- WBC (3 h): 67.3 x10_2/uL
- KIDNEY_L (3 h): 0.8 g
- KIDNEY_R (3 h): 0.8 g
- KIDNEY_TOTAL (3 h): 1.7 g
- LIVER (3 h): 7.6 g
- A/G (3 h): 0.9
- ALP (3 h): 1696 IU/L
- ALT (3 h): 48.2 IU/L
- AST (3 h): 81.6 IU/L
- BUN (3 h): 8 mg/dL
- CRE (3 h): 0.1 mg/dL
- Ca (3 h): 11 mg/dL
- Cl (3 h): 105.2 meq/L
- DBIL (3 h): 0.01 mg/dL
- GLC (3 h): 191.6 mg/dL
- IP (3 h): 10.9 mg/dL
- K (3 h): 3.6 meq/L
- LDH (3 h): 78.2 IU/L
- Na (3 h): 141.6 meq/L
- PL (3 h): 152.2 mg/dL
- RALB (3 h): 2.7 g/dL
- TBIL (3 h): 0.044 mg/dL
- TC (3 h): 82.8 mg/dL
- TG (3 h): 55.8 mg/dL
- TP (3 h): 5.7 g/dL
- gamma-GTP (3 h): 1.4 IU/L
- TERMINAL_BW (6 h): 192 g
- APTT (6 h): 15.8 s
- Bas (6 h): 0%
- Eos (6 h): 0.6%
- Fbg (6 h): 293 mg/dL
- Hb (6 h): 13.9 g/dL
- Ht (6 h): 41.8%
- Lym (6 h): 73%
- MCH (6 h): 21 pg
- MCHC (6 h): 33.3%
- MCV (6 h): 63 fL
- Mono (6 h): 2.2%
- Neu (6 h): 23.8%
- PT (6 h): 12.3 s
- Plat (6 h): 107.3 x10_4/uL
- RBC (6 h): 663.8 x10_4/ul
- Ret (6 h): 9.1%
- WBC (6 h): 56.8 x10_2/uL
- KIDNEY_L (6 h): 0.8 g
- KIDNEY_R (6 h): 0.8 g
- KIDNEY_TOTAL (6 h): 1.6 g
- LIVER (6 h): 7.4 g
- A/G (6 h): 0.9
- ALP (6 h): 1585.6 IU/L
- ALT (6 h): 40.6 IU/L
- AST (6 h): 72.2 IU/L
- BUN (6 h): 9.2 mg/dL
- CRE (6 h): 0.1 mg/dL
- Ca (6 h): 10.9 mg/dL
- Cl (6 h): 103.4 meq/L
- DBIL (6 h): 0.008 mg/dL
- GLC (6 h): 207.6 mg/dL
- IP (6 h): 11.1 mg/dL
- K (6 h): 3.8 meq/L
- LDH (6 h): 80 IU/L
- Na (6 h): 140.6 meq/L
- PL (6 h): 156.8 mg/dL
- RALB (6 h): 2.7 g/dL
- TBIL (6 h): 0.04 mg/dL
- TC (6 h): 93.2 mg/dL
- TG (6 h): 29.4 mg/dL
- TP (6 h): 5.7 g/dL
- gamma-GTP (6 h): 1.4 IU/L
- TERMINAL_BW (9 h): 190.5 g
- APTT (9 h): 16.2 s
- Bas (9 h): 0%
- Eos (9 h): 0.6%
- Fbg (9 h): 274.4 mg/dL
- Hb (9 h): 14.2 g/dL
- Ht (9 h): 41.9%
- Lym (9 h): 79%
- MCH (9 h): 21.5 pg
- MCHC (9 h): 33.9%
- MCV (9 h): 63.4 fL
- Mono (9 h): 2.4%
- Neu (9 h): 17.6%
- PT (9 h): 12.2 s
- Plat (9 h): 111.6 x10_4/uL
- RBC (9 h): 660.8 x10_4/ul
- Ret (9 h): 8.9%
- WBC (9 h): 67.7 x10_2/uL
- KIDNEY_L (9 h): 0.8 g
- KIDNEY_R (9 h): 0.8 g
- KIDNEY_TOTAL (9 h): 1.6 g
- LIVER (9 h): 6.5 g
- A/G (9 h): 0.9
- ALP (9 h): 1518.8 IU/L
- ALT (9 h): 40.8 IU/L
- AST (9 h): 75.6 IU/L
- BUN (9 h): 12 mg/dL
- CRE (9 h): 0.2 mg/dL
- Ca (9 h): 10.6 mg/dL
- Cl (9 h): 103.6 meq/L
- DBIL (9 h): 0.008 mg/dL
- GLC (9 h): 184.8 mg/dL
- IP (9 h): 11 mg/dL
- K (9 h): 3.7 meq/L
- LDH (9 h): 95.6 IU/L
- Na (9 h): 140.6 meq/L
- PL (9 h): 141.4 mg/dL
- RALB (9 h): 2.6 g/dL
- TBIL (9 h): 0.052 mg/dL
- TC (9 h): 86.6 mg/dL
- TG (9 h): 23.8 mg/dL
- TP (9 h): 5.6 g/dL
- gamma-GTP (9 h): 1.8 IU/L
- TERMINAL_BW (24 h): 185.8 g
- APTT (24 h): 18.7 s
- Bas (24 h): 0%
- Eos (24 h): 0.4%
- Fbg (24 h): 204.8 mg/dL
- Hb (24 h): 13.9 g/dL
- Ht (24 h): 40.9%
- Lym (24 h): 71.6%
- MCH (24 h): 21.5 pg
- MCHC (24 h): 34%
- MCV (24 h): 63.2 fL
- Mono (24 h): 1.8%
- Neu (24 h): 25.8%
- PT (24 h): 15.8 s
- Plat (24 h): 111.5 x10_4/uL
- RBC (24 h): 647.2 x10_4/ul
- Ret (24 h): 7.3%
- WBC (24 h): 73.2 x10_2/uL
- KIDNEY_L (24 h): 0.8 g
- KIDNEY_R (24 h): 0.8 g
- KIDNEY_TOTAL (24 h): 1.7 g
- LIVER (24 h): 8.6 g
- A/G (24 h): 0.9
- ALP (24 h): 2477 IU/L
- ALT (24 h): 113.6 IU/L
- AST (24 h): 481 IU/L
- BUN (24 h): 14.6 mg/dL
- CRE (24 h): 0.2 mg/dL
- Ca (24 h): 10.2 mg/dL
- Cl (24 h): 106.8 meq/L
- DBIL (24 h): 0.024 mg/dL
- GLC (24 h): 166.8 mg/dL
- IP (24 h): 8.3 mg/dL
- K (24 h): 4.1 meq/L
- LDH (24 h): 784.6 IU/L
- Na (24 h): 142 meq/L
- PL (24 h): 130.8 mg/dL
- RALB (24 h): 2.6 g/dL
- TBIL (24 h): 0.074 mg/dL
- TC (24 h): 85.6 mg/dL
- TG (24 h): 67.4 mg/dL
- TP (24 h): 5.5 g/dL
- gamma-GTP (24 h): 1.4 IU/L
